According to ChEMBL document CHEMBL1268894, “Synthesis and biological evaluation of novel hygromycin A antibacterial agents” (Bioorg Med Chem Lett, 2010):
Values after ≈ are worked out from the molar mass of the structure shown.

Tests used:
Staphylococcus aureus [1] = assay: Antimicrobial activity against Staphylococcus aureus 1146; assay type: functional
Streptococcus pyogenes [2] = assay: Antimicrobial activity against Streptococcus pyogenes 2035; assay type: functional
[3] = Permeability across apical to basolateral side in human Caco-2 cells; assay type: ADME, cell-based; details: read-out: permeability
[4] = Permeability across basolateral to apical side in human Caco-2 cells; assay type: ADME, cell-based; details: read-out: permeability
Streptococcus pyogenes [5] = assay: Antimicrobial activity against Streptococcus pyogenes 1079; assay type: functional
Staphylococcus aureus [6] = assay: Antimicrobial activity against Staphylococcus aureus 1095; assay type: functional
Streptococcus pneumoniae [7] = assay: Antimicrobial activity against Streptococcus pneumoniae 1095; assay type: functional
Streptococcus pneumoniae [8] = assay: Antimicrobial activity against Streptococcus pneumoniae 1046; assay type: functional
[9] = Oral bioavailability in rat; assay type: ADME, organism-based; details: in vivo

Row | MIC (Staphylococcus aureus [1]) | MIC (Streptococcus pyogenes [2]) | Papp A→B [3] | Papp B→A [4] | MIC (Streptococcus pyogenes [5]) | MIC (Staphylococcus aureus [6]) | MIC (Streptococcus pneumoniae [7]) | MIC (Streptococcus pneumoniae [8]) | bioavailability [9] | Compound
1 | 1 µg/mL (≈ 1.78 µM) | 0.25 µg/mL (≈ 0.444 µM) | 2.5 ×10⁻⁶ cm/s | 22 ×10⁻⁶ cm/s | < 0.0625 µg/mL | 1 µg/mL (≈ 1.78 µM) | < 0.0625 µg/mL | < 0.0625 µg/mL | – | C/C(=C\c1cc(F)c(OCCCF)cc1F)C(=O)N[C@@H]1[C@H](O)[C@@H](O)[C@H]2OCO[C@H]2[C@@H]1OCc1ccccc1C#N
2 | 8 µg/mL (≈ 16.8 µM) | 1 µg/mL (≈ 2.1 µM) | – | – | 2 µg/mL (≈ 4.21 µM) | 8 µg/mL (≈ 16.8 µM) | 8 µg/mL (≈ 16.8 µM) | 2 µg/mL (≈ 4.21 µM) | – | CCO[C@@H]1[C@@H](O)[C@H]2OCO[C@H]2[C@H](O)[C@@H]1NC(=O)/C(C)=C/c1cc(F)c(OCCCF)cc1F
3 | 8 µg/mL (≈ 16.3 µM) | 4 µg/mL (≈ 8.17 µM) | – | – | 1 µg/mL (≈ 2.04 µM) | 4 µg/mL (≈ 8.17 µM) | 2 µg/mL (≈ 4.09 µM) | 1 µg/mL (≈ 2.04 µM) | – | CCCO[C@@H]1[C@H](NC(=O)/C(C)=C/c2cc(F)c(OCCCF)cc2F)[C@H](O)[C@@H](O)[C@H]2OCO[C@H]21
4 | > 64 µg/mL | 64 µg/mL (≈ 131 µM) | – | – | 32 µg/mL (≈ 65.4 µM) | > 64 µg/mL | 64 µg/mL (≈ 131 µM) | 64 µg/mL (≈ 131 µM) | – | CCCO[C@@H]1[C@@H](O)[C@H]2OCO[C@H]2[C@H](O)[C@@H]1NC(=O)/C(C)=C/c1cc(F)c(OCCCF)cc1F
5 | 1 µg/mL (≈ 1.97 µM) | 0.5 µg/mL (≈ 0.985 µM) | – | – | 0.125 µg/mL (≈ 0.246 µM) | 2 µg/mL (≈ 3.94 µM) | 0.25 µg/mL (≈ 0.493 µM) | 0.25 µg/mL (≈ 0.493 µM) | – | C/C(=C\c1cc(F)c(OCCCF)cc1F)C(=O)N[C@@H]1[C@H](O)[C@@H](O)[C@H]2OCO[C@H]2[C@@H]1OCCCF
6 | 8 µg/mL (≈ 15.8 µM) | 8 µg/mL (≈ 15.8 µM) | – | – | 2 µg/mL (≈ 3.94 µM) | 16 µg/mL (≈ 31.5 µM) | 8 µg/mL (≈ 15.8 µM) | 8 µg/mL (≈ 15.8 µM) | – | C/C(=C\c1cc(F)c(OCCCF)cc1F)C(=O)N[C@H]1[C@@H](O)[C@@H]2OCO[C@@H]2[C@H](O)[C@H]1OCCCF
7 | 4 µg/mL (≈ 7.98 µM) | 1 µg/mL (≈ 1.99 µM) | – | – | 0.5 µg/mL (≈ 0.997 µM) | 4 µg/mL (≈ 7.98 µM) | 1 µg/mL (≈ 1.99 µM) | 0.5 µg/mL (≈ 0.997 µM) | – | C/C(=C\c1cc(F)c(OCCCF)cc1F)C(=O)N[C@@H]1[C@H](O)[C@@H](O)[C@H]2OCO[C@H]2[C@@H]1OCC1CC1
8 | > 64 µg/mL | > 64 µg/mL | – | – | 32 µg/mL (≈ 63.8 µM) | > 64 µg/mL | > 64 µg/mL | 64 µg/mL (≈ 128 µM) | – | C/C(=C\c1cc(F)c(OCCCF)cc1F)C(=O)N[C@H]1[C@@H](O)[C@@H]2OCO[C@@H]2[C@H](O)[C@H]1OCC1CC1
9 | 16 µg/mL (≈ 29.8 µM) | 16 µg/mL (≈ 29.8 µM) | – | – | 2 µg/mL (≈ 3.72 µM) | 16 µg/mL (≈ 29.8 µM) | 8 µg/mL (≈ 14.9 µM) | 4 µg/mL (≈ 7.44 µM) | – | C/C(=C\c1cc(F)c(OCCCF)cc1F)C(=O)N[C@@H]1[C@H](O)[C@@H](O)[C@H]2OCO[C@H]2[C@@H]1OCc1ccccc1
10 | 64 µg/mL (≈ 119 µM) | 64 µg/mL (≈ 119 µM) | 10 ×10⁻⁶ cm/s | 14 ×10⁻⁶ cm/s | 32 µg/mL (≈ 59.5 µM) | > 64 µg/mL | 32 µg/mL (≈ 59.5 µM) | 32 µg/mL (≈ 59.5 µM) | – | C/C(=C\c1cc(F)c(OCCCF)cc1F)C(=O)N[C@H]1[C@@H](O)[C@@H]2OCO[C@@H]2[C@H](O)[C@H]1OCc1ccccc1
11 | 2 µg/mL (≈ 3.76 µM) | 1 µg/mL (≈ 1.88 µM) | – | – | 0.25 µg/mL (≈ 0.47 µM) | 4 µg/mL (≈ 7.53 µM) | 1 µg/mL (≈ 1.88 µM) | 0.5 µg/mL (≈ 0.941 µM) | – | C/C(=C\c1cc(F)c(OCCCF)cc1F)C(=O)N[C@@H]1[C@H](O)[C@@H](O)[C@H]2OCO[C@H]2[C@@H]1OCC1CCOC1 (stereo partly drawn)
12 | 16 µg/mL (≈ 30.8 µM) | 2 µg/mL (≈ 3.85 µM) | – | – | 2 µg/mL (≈ 3.85 µM) | 16 µg/mL (≈ 30.8 µM) | 4 µg/mL (≈ 7.7 µM) | 4 µg/mL (≈ 7.7 µM) | 90% | COCCCO[C@@H]1[C@H](NC(=O)/C(C)=C/c2cc(F)c(OCCCF)cc2F)[C@H](O)[C@@H](O)[C@H]2OCO[C@H]21
13 | 1 µg/mL (≈ 2.06 µM) | 0.5 µg/mL (≈ 1.03 µM) | – | – | 0.25 µg/mL (≈ 0.514 µM) | 2 µg/mL (≈ 4.11 µM) | 1 µg/mL (≈ 2.06 µM) | 0.5 µg/mL (≈ 1.03 µM) | – | C/C(=C\c1cc(F)c(OCCCF)cc1F)C(=O)N[C@@H]1[C@H](O)[C@@H](O)[C@H]2OCO[C@H]2[C@@H]1OCC#N
14 | 4 µg/mL (≈ 8.94 µM) | 2 µg/mL (≈ 4.47 µM) | 0.9 ×10⁻⁶ cm/s | 5.9 ×10⁻⁶ cm/s | < 0.2 µg/mL | 4 µg/mL (≈ 8.94 µM) | 0.4 µg/mL (≈ 0.894 µM) | 0.5 µg/mL (≈ 1.12 µM) | 20% | C/C(=C\c1cc(F)c(OCCCF)cc1F)C(=O)N[C@@H]1[C@H](O)[C@@H](O)[C@H]2OCO[C@H]2[C@@H]1O
15 | 100 µg/mL (≈ 217 µM) | 100 µg/mL (≈ 217 µM) | – | – | 50 µg/mL (≈ 108 µM) | > 100 µg/mL | 25 µg/mL (≈ 54.2 µM) | 25 µg/mL (≈ 54.2 µM) | – | CO[C@@H]1[C@@H](O)[C@@H](NC(=O)/C(C)=C/c2cc(F)c(OCCCF)cc2F)[C@@H](O)[C@@H]2OCO[C@H]12
16 | 32 µg/mL (≈ 74.2 µM) | 16 µg/mL (≈ 37.1 µM) | – | – | 8 µg/mL (≈ 18.5 µM) | 64 µg/mL (≈ 148 µM) | 8 µg/mL (≈ 18.5 µM) | 4 µg/mL (≈ 9.27 µM) | – | C/C(=C\c1cc(F)c(OCCCF)cc1F)C(=O)N[C@H]1[C@@H](O)[C@@H]2OCO[C@@H]2C[C@H]1O
17 | 3.13 µg/mL (≈ 6.78 µM) | 1.56 µg/mL (≈ 3.38 µM) | – | – | 1.56 µg/mL (≈ 3.38 µM) | 6.25 µg/mL (≈ 13.5 µM) | 1.56 µg/mL (≈ 3.38 µM) | 0.78 µg/mL (≈ 1.69 µM) | – | CO[C@@H]1[C@H](NC(=O)/C(C)=C/c2cc(F)c(OCCCF)cc2F)[C@H](O)[C@@H](O)[C@H]2OCO[C@H]21
18 | 8 µg/mL (≈ 16.8 µM) | 4 µg/mL (≈ 8.41 µM) | – | – | 1 µg/mL (≈ 2.1 µM) | 8 µg/mL (≈ 16.8 µM) | 4 µg/mL (≈ 8.41 µM) | 1 µg/mL (≈ 2.1 µM) | – | CCO[C@@H]1[C@H](NC(=O)/C(C)=C/c2cc(F)c(OCCCF)cc2F)[C@H](O)[C@@H](O)[C@H]2OCO[C@H]21
19 | 8 µg/mL (≈ 18.5 µM) | 4 µg/mL (≈ 9.27 µM) | – | – | 8 µg/mL (≈ 18.5 µM) | 16 µg/mL (≈ 37.1 µM) | 8 µg/mL (≈ 18.5 µM) | – | – | C/C(=C\c1cc(F)c(OCCCF)cc1F)C(=O)N[C@H]1C[C@@H]2OCO[C@@H]2[C@H](O)[C@H]1O
20 | 50 µg/mL (≈ 123 µM) | 1.56 µg/mL (≈ 3.83 µM) | – | – | 0.8 µg/mL (≈ 1.96 µM) | 50 µg/mL (≈ 123 µM) | 1.56 µg/mL (≈ 3.83 µM) | 1.56 µg/mL (≈ 3.83 µM) | – | C=CCOc1ccc(/C=C(\C)C(=O)N[C@@H]2[C@H](O)[C@@H](O)[C@H]3OCO[C@H]3[C@@H]2O)cc1O
21 | 25 µg/mL (≈ 48.9 µM) | 6.25 µg/mL (≈ 12.2 µM) | – | – | 6.25 µg/mL (≈ 12.2 µM) | 50 µg/mL (≈ 97.8 µM) | 12.5 µg/mL (≈ 24.4 µM) | 12.5 µg/mL (≈ 24.4 µM) | – | CC(=O)[C@H]1O[C@@H](Oc2ccc(/C=C(\C)C(=O)N[C@@H]3[C@H](O)[C@@H](O)[C@H]4OCO[C@H]4[C@@H]3O)cc2O)[C@@H](O)[C@@H]1O [HYGROMYCIN A]
